Source: publication PMC12867150, “A fungi-derived cyclic peptide enhances Th9-mediated antitumor immunity by targeting ZAP70 and SREBP1” (The Journal of Clinical Investigation, 2025)
“And” between values parts separate entries of the source, which are not always exact repeats. Equal values may be shown once.

How the values were obtained:
Format in all cases: cell-based, mouse
Th9 cells [1] = test: IL-9+ Th9 cells with oleic acid (S8I-J); settings: OA 50 μM
From the text: LXR-α binding site ChREBP binding site USF1 binding site […] 2.1 1.8 2.1 […] 1.9 […] 20 20 0 […] + OA ✱✱✱✱ MIGR1 M Ctrl + OAEpA […] SREBP1 Ctrl SREBP1EpA ✱✱✱✱ ✱✱✱ 3 2 1 0 TNF-α MIGR1 SREBP1 […] SREBP1EpA Figure S8. EpA-associated modulation of lipid metabolism and its impact on Figure S8 Th9 cell function. (A-C) GSEA of RNA-seq data showing intracellular sterol transport (A), sterol transfer activity (B), and long-chain fatty acid transport (C) pathways in control and EpA-treated Th9 cells. […] (K and L) Flow-cytometric analysis of IL-9 expression in Th9 cells transduced with either control (MIGR1) or SREBP1- […]

Th9 cells [2] = test: IL-9+ Th9 cells with MEK or ERK inhibition (Figure 5H); settings: for IL-9 (flow cytometric quantification): Figure 5H, single agent, individual replicates, (n = 5); for IL-9 production: trametinib 10 nM, temuterkib 100 nM, result in words
Experimental: (A) Identification and ranking of EpA-interacting proteins by affinity pulldown and LC-MS/MS, ordered by in silico binding energy predictions. […] (E) Flow-cytometric analysis of phosphorylated ZAP70 in Th9 cells 10 minutes after TCR activation (mean ± SEM, n = 3). (F) Pathway enrichment analysis of RNA-seq data showing MAPK/ERK-related pathways in EpA-treated Th9 cells. (G) Immunoblot analysis of total and phosphorylated MEK1/2 and ERK1/2 in control and EpA-treated Th9 cells. (H–L) Functional consequences of MEK or ERK inhibition in EpA-treated Th9 cells. […] Data in H–K are shown as mean ± SEM (n = 5) and in L as mean ± SEM (n = 3). Statistical significance was determined using 1-way ANOVA followed by Tukey’s test (E, H–L). *P < 0.05, **P < 0.01, ***P < 0.001, ****P < 0.0001.
(§1) T cell polarization was initiated under plate-bound anti-CD3 (2 μg/mL, clone 17A2, BioXCell, catalog BE0002) and soluble anti-CD28 (1 μg/mL, clone 37.51, BioXCell, catalog BE0015-1) stimulation, with the addition of cytokines and neutralizing antibodies specific to each subset. For Th9 cells, these included IL-4 (10 ng/mL, Peprotech, catalog 400-04), TGF-β (1 ng/mL, EPOTO Biotech, catalog HF-2021), anti–IL-12 (5 μg/mL, clone C17.8, BioXCell, catalog BE0051), and anti–IFN-γ (10 μg/mL, clone XMG1.2, BioXCell, catalog BE0055); for Th1 cells, these included IL-12 (10 ng/mL, GenScript, catalog Z03211-50) and anti–IL-4 (5 μg/mL, clone 11B11, BioXCell, catalog BE0045); for Th2 cells, these included IL-4 (50 ng/mL), anti–IFN-γ (20 μg /mL), anti–IL-12 (5 μg/mL), Th17 cells: IL-6 (20 ng/mL, EPOTO Biotech, catalog MF-1006), TGF-β (1 ng/mL), IL-1β (10 ng/mL, Peprotech, catalog AF-211-11B), anti–IFN-γ (10 μg/mL), anti–IL-12 (5 μg/mL), and anti–IL-4 (5 μg/mL); and for Tregs, these included TGF-β (3 ng/mL). After 3 days of initial culture, cells were either collected for downstream assays or continued in extended culture with refreshed cytokines to maintain lineage commitment.
The following pharmacological inhibitors were used at the indicated final concentrations: trametinib (MEK1/2 inhibitor; Selleck, catalog S4484) at 10 nM; temuterkib (ERK1/2 inhibitor; MCE, catalog HY-101494) at 100 nM; and fatostatin hydrobromide (SREBP inhibitor; MCE, catalog HY-14452A) at 5 μM. Dead cells were detected using Fixable Viability Dye eFluor 780 (eBioscience, catalog 65-0865).

PD-1 on Th9 cells = test: Flow cytometry of PD-1 on Th9 cells in vitro (Figure 5K, 7E, S3D); settings: for PD1 (flow cytometric quantification): Figure 5K, single agent, individual replicates, (n = 5); for PD-1 expression: MEK/ERK blockade, even with EpA, result in words
Experimental: (§2) Naive CD4^+ T cells were isolated from the spleens of C57BL/6J or CD45.1^+ OT-II mice using the MojoSort Mouse CD4 Naive T Cell Isolation Kit (BioLegend, catalog 480040), following the manufacturer’s protocol. Purified cells were cultured in RPMI-1640 medium supplemented with 10% FBS, 1% penicillin-streptomycin, and 0.1% β-mercaptoethanol (Gibco, catalog 21985023).
as §1
(§3) Details regarding staining panels (human and mouse), reagents (including clones and catalog numbers), acquisition settings, compensation/controls, and analysis procedures are provided in Supplemental Methods.
(§4) BioLegend, Cat. No. 422301 or Mouse TruStain FcX™, BioLegend, Cat. No. 101319) for 10 minutes at 4°C. For surface marker detection, cells were stained with fluorochrome-conjugated monoclonal antibodies in 96-well V-bottom plates and incubated on ice for 30 minutes. After staining, cells were washed twice and resuspended in FACS buffer for analysis.
(§5) Prior to intracellular cytokine staining, cells were restimulated for 4 hours with PMA (Absin, Cat. No. abs9107), ionomycin (Sigma-Aldrich, Cat. No. I0634), and brefeldin A (MedChemExpress, Cat. No. HY-16592). For intracellular cytokine staining, cells were first surface-stained as described above, then fixed and permeabilized using the BD Cytofix/Cytoperm™ kit (BD Biosciences, Cat. No. 554714) according to the manufacturer ’s protocol. Intracellular proteins were stained with directly conjugated antibodies targeting IL-9, IL-17a, IL-4, IFN-γ, TNF-α, FOXP3, p-ZAP70, Perforin, and […]
(§6) Antibodies used for mouse samples included those against IL-9 (PE, clone RM9A4, Biolegend, Cat. No. 514104), IFN-γ (PE, clone XMG1.2, Biolegend, Cat. No.
(§7) Cat. No. 103138), CD4 (APC/Cy7, clone E-AB-F1353UJ, Elabscience, Cat. No.
(§8) AF18028), CD8α (PerCP/Cy5.5, clone E-AB-F1104UJ, Elabscience, Cat. No. […]
(§9) clone E-AB-F1187UH, Elabscience, Cat. No. AF19854), TNF-α (BV421, clone MP6-XT22, Biolegend, Cat. No. 506328), FOXP3 (PE, clone FJK-16s, eBioscience, Cat. No.
(§10) Perforin (APC, clone S16009A, Biolegend, Cat. No. 154303) and Granzyme B (APC, […]
(§11) clone QA16A02, Biolegend, Cat. No. 372203). […]

CD69 on Th9 cells = test: Flow cytometry of CD69 on Th9 cells in vitro (Figure 5J, 7D); settings: for CD69 (flow cytometric quantification): Figure 5J, single agent, individual replicates, (n = 5); for CD69 expression: MEK/ERK blockade, even with EpA, result in words
Experimental: as §2, §1, §3, §4, §5, §6, §7, §8, §9, §10, §11

TNF-α in Th9 cells = test: Flow cytometry of TNF-α in Th9 cells in vitro (Figure 3F, 5I, 7C, S8M-N); settings: for TNF (flow cytometric quantification): Figure 5I, single agent, individual replicates, (n = 5); for TNF-α expression: MEK/ERK blockade, even with EpA, result in words
Experimental: as §2, §1, §3, §4, §5, §6, §7, §8, §9, §10, §11

[3] = test system: mitochondria of Th9 cells; test: Flow cytometry with MitoTracker Deep Red (Figure 4M, 5L, 7F, 7J); settings: Figure 5L, single agent, individual replicates, (n = 3)
Experimental: […] Cells were incubated with the respective dyes, washed, and subjected to flow cytometry or fluorescence microscopy analysis. For ultrastructural assessment, mitochondrial number and diameter were quantified from high-resolution transmission electron microscopy (TEM) images using ImageJ software.

Question: What does the source list for `CCCCCCCC/C=C\CCCCCCCC(=O)O` [oleic acid]?
Answer: Th9 polarization with oleic acid (Th9 cells [1]; result in words): antagonizes Th9 polarization; IL-9 gate number (Th9 cells [1]; representative flow plot, Figure S8I, EpA 10 μM): 0.8

Question: How did the “IL-9 (flow cytometric quantification)” value (Th9 cells [2]; listed as MEKin) turn out when `CC(=O)Nc1cccc(-n2c(=O)n(C3CC3)c(=O)c3c(Nc4ccc(I)cc4F)n(C)c(=O)c(C)c32)c1` [trametinib, reference compound] was run?
Answer: 0.7 and 0.66 and 0.89 and 0.62 and 0.69

Question: And the IL-9 production (Th9 cells [2])?
Answer: almost completely abrogated IL-9 production

Question: What about the “PD1 (flow cytometric quantification)” value (PD-1 on Th9 cells; listed as MEKin) of the same compound?
Answer: 177 and 192 and 187 (2×) and 180

Question: And the PD-1 expression (PD-1 on Th9 cells)?
Answer: significantly reduced

Question: What about the “CD69 (flow cytometric quantification)” value (CD69 on Th9 cells; listed as MEKin) of the same compound?
Answer: 19.1 and 22.5 and 21.5 and 19.6 and 18.9

Question: And the CD69 expression (CD69 on Th9 cells)?
Answer: significantly reduced

Question: And the “TNF (flow cytometric quantification)” value (TNF-α in Th9 cells; listed as MEKin)?
Answer: 1461 and 1480 and 1452 (2×) and 1443

Question: What about the TNF-α expression (TNF-α in Th9 cells) of the same compound?
Answer: significantly reduced

Question: And the “Mito tracker (flow cytometric quantification)” value ([3]; listed as MEKin)?
Answer: 942 and 929 and 920

Question: Which “IL-9 (flow cytometric quantification)” value (Th9 cells [2]; listed as ERKin) does the source give for `Cn1nccc1Nc1nccc(-c2cc3c(s2)C(C)(C)N(CCN2CCOCC2)C3=O)n1` [temuterkib, reference compound] here?
Answer: 0.84 and 0.88 and 0.8 and 0.91 and 1

Question: What about the IL-9 production (Th9 cells [2]) of the same compound?
Answer: almost completely abrogated IL-9 production

Question: And the “PD1 (flow cytometric quantification)” value (PD-1 on Th9 cells; listed as ERKin)?
Answer: 218 and 220 and 219 and 229 and 222

Question: What about the PD-1 expression (PD-1 on Th9 cells) of the same compound?
Answer: significantly reduced

Question: What about the “CD69 (flow cytometric quantification)” value (CD69 on Th9 cells; listed as ERKin) of the same compound?
Answer: 21.9 and 20.8 and 21.6 (2×) and 21.7

Question: And the CD69 expression (CD69 on Th9 cells)?
Answer: significantly reduced

Question: What about the “TNF (flow cytometric quantification)” value (TNF-α in Th9 cells; listed as ERKin) of the same compound?
Answer: 1577 and 1578 and 1574 and 1552 and 1651

Question: And the TNF-α expression (TNF-α in Th9 cells)?
Answer: significantly reduced

Question: And the “Mito tracker (flow cytometric quantification)” value ([3]; listed as ERKin)?
Answer: 1115 (2×) and 1113
